Data taken from patent publication US20070082880A1 (priority 2005, published 2007).

Target: T1, human PKCθ full length enzyme (Homo sapiens, UniProt Q04759)
T1 construct: human PKCθ full length enzyme (Panvera Catalog No. P2996); purchased Panvera P2996
Test: PKCθ IMAP Assay
Type: biochemical
Details: average value when one or more samples were tested; ATP 6 uM, PKCθ 1 nM
Experimental: The materials used include the following: human PKCθ full length enzyme (Panvera Catalog No. P2996); substrate peptide: 5FAM-[…]-OH (Molecular Devices, RP7032); ATP (Sigma Cat # A2383); DTT (Pierce, 20291); 5× kinase reaction buffer (Molecular Devices, R7209); 5× binding buffer A (Molecular Devices, R7282), 5× binding buffer B (Molecular Devices, R7209); IMAP Beads (Molecular Devices, R7284); and 384-well plates (Corning Costar, 3710).
The reaction buffer was prepared by diluting the 5× stock reaction buffer and adding DTT to obtain a concentration of 3.0 mM. The binding buffer was prepared by diluting the 5× binding buffer A. A master mix solution was prepared using a 90% dilution of the reaction buffer containing 2×ATP (12 uM) and 2× peptide ([…]). […] The final concentration of compound was 2× and 10% DMSO. DMSO was added to the rest of the master mix to increase the concentration to 10%. 10 ul of the master mix containing 10% DMSO was added to the rest of the wells on the plate except the 2nd column. 20 ul was transferred from the first column to the 2nd column. The compounds were serially diluted in 2:1 ratio starting from the 2nd column. A 2× (2 nM) PKCθ solution was made in the reaction buffer. 10 ul of the PKCθ solution was added to every well to achieve these final concentrations: PKCθ—1 nM; ATP—6 uM; peptide—100 nM; DMSO—5%. Samples were incubated for 25 minutes at room temperature. The binding reagent was prepared by diluting the beads in 1× binding buffer to 800:1. 50 ul of the binding reagent was added to every well and incubated for 20 minutes. FP was measured using Envision2100 (PerkinElmer Life Sciences). Wells with no ATPs and wells with no enzymes were used as controls.

T1 sequence (Q04759 whole entry): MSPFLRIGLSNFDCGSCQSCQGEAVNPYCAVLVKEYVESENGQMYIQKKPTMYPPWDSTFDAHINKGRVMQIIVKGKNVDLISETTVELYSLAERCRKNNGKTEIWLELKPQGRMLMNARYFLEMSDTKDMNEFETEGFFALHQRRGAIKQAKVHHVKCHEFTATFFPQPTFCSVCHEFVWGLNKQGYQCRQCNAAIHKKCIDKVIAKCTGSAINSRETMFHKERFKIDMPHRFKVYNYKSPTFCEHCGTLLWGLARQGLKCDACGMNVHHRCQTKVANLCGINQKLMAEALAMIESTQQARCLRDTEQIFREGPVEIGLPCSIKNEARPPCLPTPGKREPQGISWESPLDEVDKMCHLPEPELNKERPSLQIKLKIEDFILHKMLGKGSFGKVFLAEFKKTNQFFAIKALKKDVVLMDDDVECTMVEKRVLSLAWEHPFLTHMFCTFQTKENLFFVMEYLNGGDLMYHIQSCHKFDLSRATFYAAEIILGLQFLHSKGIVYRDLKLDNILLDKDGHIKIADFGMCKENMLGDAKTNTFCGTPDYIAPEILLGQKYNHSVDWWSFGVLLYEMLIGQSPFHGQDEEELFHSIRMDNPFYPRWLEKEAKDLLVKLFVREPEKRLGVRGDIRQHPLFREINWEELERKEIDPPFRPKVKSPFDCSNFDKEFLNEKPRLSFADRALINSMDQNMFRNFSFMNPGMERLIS

`Cc1c(Nc2c(C#N)cnc3sc(-c4cccc(C=O)c4)cc23)ccc2[nH]ccc12` [Compound 201, 2-(3-formylphenyl)-4-[(4-methyl-1H-indol-5-yl)amino]thieno[2,3-b]pyridine-5-carbonitrile] was tested. Which IC50 did it give?
The IC50 was 16 nM.

Which IC50 does the source give for `COc1ccc(C=O)cc1-c1cc2c(Nc3ccc4[nH]ccc4c3)c(C#N)cnc2s1` [Compound 202, 2-(5-formyl-2-methoxyphenyl)-4-(1H-indol-5-ylamino)thieno[2,3-b]pyridine-5-carbonitrile] here?
The IC50 was 100 nM.

For `CN(C)Cc1cc(-c2cc3c(Nc4ccc5[nH]ccc5c4)c(C#N)cnc3s2)cs1` [Compound 212, 2-{5-[(dimethylamino)methyl]-3-thienyl}-4-(1H-indol-5-ylamino)thieno[2,3-b]pyridine-5-carbonitrile], which IC50 is on record?
The IC50 was 37 nM.

With `CN(C)Cc1cccc(C#Cc2cc3c(Nc4cccc5[nH]ccc45)c(C#N)cnc3s2)n1` [Compound 219, 2-({6-[(dimethylamino)methyl]pyridin-2-yl}ethynyl)-4-(1H-indol-4-ylamino)thieno[2,3-b]pyridine-5-carbonitrile] as the compound, how does the IC50 read?
Its IC50 is 84 nM.

With `Cc1c(Nc2c(C#N)cnc3sc(C#Cc4cccc(CN(C)C)n4)cc23)ccc2[nH]ccc12` [Compound 220, 2-({6-[(dimethylamino)methyl]pyridin-2-yl}ethynyl)-4-(4-methyl-1H-indol-5-ylamino)thieno[2,3-b]pyridine-5-carbonitrile] as the compound, how does the IC50 read?
The IC50 was 14 nM.

`N#Cc1cnc2sc(C#Cc3cnc(N)nc3)cc2c1Nc1ccc2[nH]ccc2c1` [Compound 228, 2-[(2-aminopyrimidin-5-yl)ethynyl]-4-(1H-indol-5-ylamino)thieno[2,3-b]pyridine-5-carbonitrile] was tested. Which IC50 did it give?
The IC50 was greater than 1500 nM.

How did the IC50 turn out when `CN(C)Cc1ccc(C#Cc2cc3c(Nc4ccc5[nH]ccc5c4)c(C#N)cnc3s2)nc1` [Compound 229, 2-({5-[(dimethylamino)methyl]pyridin-2-yl}ethynyl)-4-(1H-indol-5-ylamino) thieno[2,3-b]pyridine-5-carbonitrile] was run?
Its IC50 is 790 nM.

`CNS(=O)(=O)c1ccc(-c2cc3c(Nc4ccc5[nH]ccc5c4C)c(C#N)cnc3s2)cc1` [Compound 230, 4-{5-cyano-4-[(4-methyl-1H-indol-5-yl)amino]thieno[2,3-b]pyridin-2-yl}-N-methylbenzenesulfonamide] was tested. Which IC50 did it give?
Its IC50 is 9 nM.

`CN(C)S(=O)(=O)c1ccc(-c2cc3c(Nc4ccc5[nH]ccc5c4)c(C#N)cnc3s2)cc1` [Compound 231, 4-[5-cyano-4-(1H-indol-5-ylamino)thieno[2,3-b]pyridin-2-yl]-N,N-dimethylbenzenesulfonamide] was tested. Which IC50 did it give?
The IC50 was 210 nM.

With `N#Cc1cnc2sc(-c3ccc(S(=O)(=O)NCCO)cc3)cc2c1Nc1ccc2[nH]ccc2c1` [Compound 232, 4-[5-cyano-4-(1H-indol-5-ylamino)thieno[2,3-b]pyridin-2-yl]-N-(2-hydroxyethyl)benzenesulfonamide] as the compound, how does the IC50 read?
Its IC50 is 340 nM.

With `N#Cc1cnc2sc(-c3ccc(S(=O)(=O)NC4CCCCC4)cc3)cc2c1Nc1ccc2[nH]ccc2c1` [Compound 233, 4-[5-cyano-4-(1H-indol-5-ylamino)thieno[2,3-b]pyridin-2-yl]-N-cyclohexylbenzenesulfonamide] as the compound, how does the IC50 read?
Its IC50 is 40000 nM.

`CS(=O)(=O)c1ccc(-c2cc3c(Nc4ccc5[nH]ccc5c4)c(C#N)cnc3s2)cc1` [Compound 234, 4-(1H-indol-5-ylamino)-2-[4-(methylsulfonyl)phenyl]thieno[2,3-b]pyridine-5-carbonitrile] was tested. Which IC50 did it give?
The IC50 was 130 nM.

`CS(=O)(=O)Nc1ccc(-c2cc3c(Nc4ccc5[nH]ccc5c4)c(C#N)cnc3s2)cc1` [Compound 235, N-{4-[5-cyano-4-(1H-indol-5-ylamino)thieno[2,3-b]pyridin-2-yl]phenyl}methanesulfonamide] was tested. Which IC50 did it give?
Its IC50 is 1200 nM.

For `Cc1c(Nc2c(C#N)cnc3sc(-c4ccc(S(=O)(=O)N(C)C)cc4)cc23)ccc2[nH]ccc12` [Compound 236, 4-{5-cyano-4-[(4-methyl-1H-indol-5-yl)amino]thieno[2,3-b]pyridin-2-yl}-N,N-dimethylbenzenesulfonamide], which IC50 is on record?
Its IC50 is 20 nM.

How did the IC50 turn out when `Cc1c(Nc2c(C#N)cnc3sc(-c4cccc(S(=O)(=O)N(C)C)c4)cc23)ccc2[nH]ccc12` [Compound 237, 3-{5-cyano-4-[(4-methyl-1H-indol-5-yl)amino]thieno[2,3-b]pyridin-2-yl}-N,N-dimethylbenzenesulfonamide] was run?
Its IC50 is 50 nM.

With `Cc1c(Nc2c(C#N)cnc3sc(-c4ccccc4S(=O)(=O)N(C)C)cc23)ccc2[nH]ccc12` [Compound 238, 2-{5-cyano-4-[(4-methyl-1H-indol-5-yl)amino]thieno[2,3-b]pyridin-2-yl}-N,N-dimethylbenzenesulfonamide] as the compound, how does the IC50 read?
The IC50 was 440 nM.

`CS(=O)(=O)c1cccc(-c2cc3c(Nc4ccc5[nH]ccc5c4)c(C#N)cnc3s2)c1` [Compound 239, 4-(1H-indol-5-ylamino)-2-[3-(methylsulfonyl)phenyl]thieno[2,3-b]pyridine-5-carbonitrile] was tested. Which IC50 did it give?
Its IC50 is 1100 nM.

How did the IC50 turn out when `Cc1c(Nc2c(C#N)cnc3sc(-c4cccc(S(N)(=O)=O)c4)cc23)ccc2[nH]ccc12` [Compound 240, 3-{5-cyano-4-[(4-methyl-1H-indol-5-yl)amino]thieno[2,3-b]pyridin-2-yl}benzenesulfonamide] was run?
Its IC50 is 6 nM.

`Cc1c(Nc2c(C#N)cnc3sc(-c4ccc(S(N)(=O)=O)cc4)cc23)ccc2[nH]ccc12` [Compound 241, 4-{5-cyano-4-[(4-methyl-1H-indol-5-yl)amino]thieno[2,3-b]pyridin-2-yl}benzenesulfonamide] was tested. Which IC50 did it give?
The IC50 was 13 nM.

For `N#Cc1cnc2sc(-c3ccc(S(N)(=O)=O)cc3)cc2c1Nc1ccc2[nH]ccc2c1` [Compound 242, 4-[5-cyano-4-(1H-indol-5-ylamino)thieno[2,3-b]pyridin-2-yl]benzenesulfonamide], which IC50 is on record?
The IC50 was 380 nM.

For `COC(=O)c1cc2c(Nc3ccc4[nH]ccc4c3)c(C#N)cnc2s1` [Compound 246, methyl 5-cyano-4-(1H-indol-5-ylamino)thieno[2,3-b]pyridine-2-carboxylate], which IC50 is on record?
The IC50 was 438 nM.

How did the IC50 turn out when `N#Cc1cnc2sc(C(=O)N3CCCC3)cc2c1Nc1ccc2[nH]ccc2c1` [Compound 250, 4-(1H-indol-5-ylamino)-2-(pyrrolidin-1-ylcarbonyl)thieno[2,3-b]pyridine-5-carbonitrile] was run?
Its IC50 is 1040 nM.

How did the IC50 turn out when `N#Cc1cnc2sc(C(=O)Nc3cccnc3)cc2c1Nc1ccc2[nH]ccc2c1` [Compound 251, 5-cyano-4-(1H-indol-5-ylamino)-N-pyridin-3-ylthieno[2,3-b]pyridine-2-carboxamide] was run?
The IC50 was 1670 nM.

`N#Cc1cnc2sc(C(=O)Nc3ccncc3)cc2c1Nc1ccc2[nH]ccc2c1` [Compound 252, 5-cyano-4-(1H-indol-5-ylamino)-N-pyridin-4-ylthieno[2,3-b]pyridine-2-carboxamide] was tested. Which IC50 did it give?
Its IC50 is 959 nM.

With `CN1CCN(C(=O)c2cc3c(Nc4ccc5[nH]ccc5c4)c(C#N)cnc3s2)CC1` [Compound 253, 4-(1H-indol-5-ylamino)-2-[(4-methylpiperazin-1-yl)carbonyl]thieno[2,3-b]pyridine-5-carbonitrile] as the compound, how does the IC50 read?
The IC50 was 2280 nM.

With `N#Cc1cnc2sc(C(=O)NCCO)cc2c1Nc1ccc2[nH]ccc2c1` [Compound 254, 5-cyano-N-(2-hydroxyethyl)-4-(1H-indol-5-ylamino)thieno[2,3-b]pyridine-2-carboxamide] as the compound, how does the IC50 read?
The IC50 was 864 nM.

`Cc1c(Nc2c(C#N)cnc3sc(C(=O)N4CCOCC4)cc23)ccc2[nH]ccc12` [Compound 255, 4-[(4-methyl-1H-indol-5-yl)amino]-2-(morpholin-4-ylcarbonyl)thieno[2,3-b]pyridine-5-carbonitrile] was tested. Which IC50 did it give?
The IC50 was 276 nM.
